# Experimental data published in patent US5444042A, “Method of treatment of neurodegeneration with calpain inhibitors” (Cortex Pharmaceuticals, priority 1994, dated 1995).
# Tests used:
# Calpain I [1] = target: T1, Calpain I (Homo sapiens, UniProt P07384); experiment: Calpain I KI (Table 1B(ii)); format: biochemical; details: Table 1B(ii)
# T1 sequence (P07384 1-714): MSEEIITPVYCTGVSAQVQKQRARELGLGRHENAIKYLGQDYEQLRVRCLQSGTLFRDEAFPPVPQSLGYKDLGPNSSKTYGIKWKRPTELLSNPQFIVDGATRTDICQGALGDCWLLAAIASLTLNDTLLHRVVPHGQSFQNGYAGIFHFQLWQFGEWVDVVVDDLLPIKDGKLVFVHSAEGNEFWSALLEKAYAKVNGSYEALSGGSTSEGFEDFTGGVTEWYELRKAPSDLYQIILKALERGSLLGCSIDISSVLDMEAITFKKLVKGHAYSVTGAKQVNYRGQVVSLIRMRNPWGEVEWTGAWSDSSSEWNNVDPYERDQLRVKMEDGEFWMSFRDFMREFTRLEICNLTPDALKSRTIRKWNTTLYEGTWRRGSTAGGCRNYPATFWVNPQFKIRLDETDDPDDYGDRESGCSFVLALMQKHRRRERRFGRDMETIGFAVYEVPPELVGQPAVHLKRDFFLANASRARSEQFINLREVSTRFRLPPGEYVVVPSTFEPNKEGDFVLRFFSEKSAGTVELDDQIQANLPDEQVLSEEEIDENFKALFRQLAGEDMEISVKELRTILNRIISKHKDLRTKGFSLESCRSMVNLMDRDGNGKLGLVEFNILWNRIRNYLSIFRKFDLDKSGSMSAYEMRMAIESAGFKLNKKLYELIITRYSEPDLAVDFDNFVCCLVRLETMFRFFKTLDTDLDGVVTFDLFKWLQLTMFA
# T1 sequence (P04632 1-268 partner): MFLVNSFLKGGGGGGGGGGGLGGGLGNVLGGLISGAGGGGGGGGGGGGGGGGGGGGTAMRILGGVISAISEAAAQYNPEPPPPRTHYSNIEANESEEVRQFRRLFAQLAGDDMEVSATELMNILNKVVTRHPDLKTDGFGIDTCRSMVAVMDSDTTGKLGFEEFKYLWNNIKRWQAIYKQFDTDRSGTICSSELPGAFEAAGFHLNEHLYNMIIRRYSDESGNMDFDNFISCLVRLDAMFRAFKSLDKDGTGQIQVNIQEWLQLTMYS
# Excerpt: (§1) We tested the ability of an additional group of Peptide Keto-Compounds to inhibit several proteases in order to evaluate their specificity for Calpain.
# Calpain II = Calpain II KI (Table 1B(ii)); format: biochemical
# Excerpt: as §1
# Cathepsin B = Cathepsin B (Bos taurus, UniProt P07688); experiment: Cathepsin B KI (Table 1B(ii)); format: biochemical; details: read-out: KI CathB
# Excerpt: as §1
# Chym = Chym (Bos taurus, UniProt P00766); experiment: Chym KI (Table 1B(ii)); format: biochemical
# Excerpt: as §1
# PP Elastase = PP Elastase (Sus scrofa, UniProt P00772); experiment: PP Elastase KI (Table 1B(ii)); format: biochemical
# PP Elastase, sequence (P00772 27-266): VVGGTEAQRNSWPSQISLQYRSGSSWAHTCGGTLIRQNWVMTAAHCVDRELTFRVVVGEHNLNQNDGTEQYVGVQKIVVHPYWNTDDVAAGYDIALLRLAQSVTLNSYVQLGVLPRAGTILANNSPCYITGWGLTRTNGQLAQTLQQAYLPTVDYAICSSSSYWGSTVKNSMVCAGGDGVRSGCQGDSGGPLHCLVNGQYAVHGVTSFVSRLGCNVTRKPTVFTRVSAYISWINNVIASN
# Excerpt: as §1
# Stability in plasma = format: in vitro ADME; details: unit assumed
# Excerpt: (§2) We determined the haft-life of several Peptide Keto-Compounds in both plasma and liver homogenates.
# [2] = Stability in liver homogenates; format: in vitro ADME; details: unit assumed
# Excerpt: as §2
# Calpain within platelets = experiment: Platelet membrane permeation assay, spectrin proteolysis (Examples 4A, 4B); format: cell-based, rat; details: for inhibition of Calpain within platelets / platelet assay, semi-quantitative: 100 μM; for inhibition of Calpain within platelets: A23187 1 μM; for IC50: concentration at which 50% of the Calpain activation present in controls occurred
# Description: Platelets were isolated by a modification of the method of Ferrell and Martin, J Biol. Chem., 264:20723-20729 (1989), the disclosure of which is hereby incorporated by reference. Blood (15-20 ml) was drawn from male Sprague-Dawley rats into 100 mM EDTA-citrate containing 10 units heparin, and centrifuged 30 minutes at 1600 rpm at room temperature. The plasma was resuspended in 15 ml buffer 1 (136 mM NaCl, 2.7 mM KCl, 0.42 mM NaH2 PO4, 12 mM NaHCO3, 2 mM MgCl2, 2 mg/ml BSA (Sigma), 5.6 mM glucose, 22 mM Na3 Citrate pH 6.5) and platelets were isolated at 2200 rpm at room temperature of 25 minutes. Platelets were resuspended to 10^7 cells/ml in buffer 2 (136 mM NaCl, 2.7 mM KCl, 0.42 NaH2 PO4, 12 mM NaHCO3, 2 mM MgCl, 1 mg/ml BSA, 5.6 mM glucose, 20 mM HEPES pH 7.4) and allowed to "rest" for a minimum of 10 minutes at room temperature before use.
# Platelets were incubated for 5 minutes in the presence of inhibitor. In order to provide sufficient intracellular calcium to activate Calpain, the calcium ionophore A23187 was added to a final concentration of 1 μM. After a further 5 minute incubation, the platelets were harvested by centrifugation (1 min 10,000×g) and resuspended in 10% sodium dodecyl sulfate, 10 mM Tris pH=8.0, 5% β-mercaptoethanol, 0.02% bromophenol blue, and heated to 95° C. for 5 min. Samples were subjected to SDS-PAGE on 6% mini gels and transferred to nitrocellulose (Schleicher and Schuell BAS3) for 2 hours at 100 mA/gel in an LKB Novablot. Filters were blocked for 10 minutes in 0.25% gelatin, 1% BSA, 0.25% Triton X100, 0.9% NaCl, 10 mM Tris-Cl pH 7.5, incubated overnight in the same solution containing antibody to rat spectrin, washed 3×10 minutes with 10 mM Tris-Cl pH 7.5, 0.5 % Triton X100, incubated 4 hours in wash buffer plus alkaline phosphatase conjugated goat anti-rabbit antibody (Biorad), and washed as above. Filters were developed using the Biorad AP conjugate substrate kit. Spectrin immunoreactivity on the filters was quantitated by densitometry.
# Papain = target: T2, Papain (Carica papaya, UniProt P00784); experiment: Papain KI (Table 1B(ii)); format: biochemical
# T2 sequence (P00784 134-345): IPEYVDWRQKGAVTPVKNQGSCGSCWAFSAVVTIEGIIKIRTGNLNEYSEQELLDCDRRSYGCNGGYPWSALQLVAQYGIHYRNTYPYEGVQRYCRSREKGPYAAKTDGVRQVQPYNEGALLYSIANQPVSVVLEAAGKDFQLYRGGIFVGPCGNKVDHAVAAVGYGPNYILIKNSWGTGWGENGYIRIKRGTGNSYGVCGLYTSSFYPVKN
# Excerpt: as §1
# Calpain I [3] = target: T1, Calpain I; experiment: Calpain I 14C-methylated casein proteolysis (Table 1A); format: biochemical
# Description: The isocoumarins are irreversible inhibitors of Calpain. We obtained IC50 values for a variety of these Calpain Inhibitors as a kinetic analysis of these compounds.
# Calpains I and II were purified by the method of (Yoshimura, et al. 1983). (Kitahara 1984) provides an alternative purification scheme. Calpain II may alternatively be purchased from Sigma Chemical Co. as "Calcium Activated Neutral Protease." In this assay, purified Calpain was incubated with ^14 C-methylated casein in the presence of various Heterocyclic Compounds and the amount of acid-soluble radioactivity released by the action of Calpain was measured.
# [4] = system: Calpain in crude brain extracts; experiment: Ca2+-stimulated spectrin proteolysis in crude brain extracts (Example 2); format: biochemical; details: 100 μM
# Description: The activity of Calpain in crude brain extracts was measured by examining the Ca^2+ -stimulated proteolysis of the endogenous substrate spectrin. Brain tissue was homogenized in 10 mM Tris pH=7.4, 0.32M sucrose, 1 mM EGTA, 1 mM dithiothreitol and the nuclei and debris removed by low speed centrifugation. […] Proteolysis of spectrin was evaluated by western blot as described by Seubert, et at. (Brain Research, 459:226-232, 1988), the disclosure of which is hereby incorporated by reference. Briefly, a known quantity of a spectrin-containing sample treated with Calpain is separated by SDS-PAGE and immunoblotted with anti-spectrin antibody. The amount of spectrin immunoreactivity found corresponding to the characteristic BDP's is indicative of the amount of […] activity present in the sample. An examplary method for quantitating BDP's is to assay Spectrin BDP's by homogenizing brain parts in 20 mM Tris pH=7.2, 0.32M sucrose, 50 μM Ac-Leu-Leu-nLeu-H on ice. Homogenates are then mixed 1:1 with 10% SDS, 5% β-mercaptoethanol, 10% glycerol, 10 mM Tris pH=8.0, 0.5% bromophenolblue, heated to 95° C., and subjected to electrophoresis in 41/2% polyacrylamide gels. The proteins in the gels are transferred to nitrocellulose and the spectrin and BDP's detected using a rabbit polyclonal anti-spectrin antibody and established immunodetection methods. The amount of spectrin and BDP's in each sample can be quantitated by densitrometric scanning of the developed nitrocellulose.
Molecule,Ki (Calpain I [1]) [µM],Ki (Calpain II) [µM],Ki (Cathepsin B) [µM],Ki (Chym) [µM],Ki (PP Elastase) [µM],t1/2 plasma (Stability in plasma) [h],t1/2 liver [2] [h],inhibition of Calpain within platelets (Calpain within platelets),IC50 (Calpain within platelets) [µM],Ki (Papain) [µM],"platelet assay, semi-quantitative (Calpain within platelets)",IC50 (Calpain I [3]) [µM],inhibition of spectrin proteolysis in crude brain extracts [4]
CC(C)CC(NC(=O)OCc1ccccc1)C(=O)NC(Cc1ccccc1)C(=O)C(=O)O (stereo not drawn) [Z-Leu-Phe-COOH],0.0085,0.0057,4.5,76,> 150,> 1,> 1,significant inhibition,6.5,,,,
CCOC(=O)C(=O)[C@H](Cc1ccccc1)NC(=O)[C@H](CC(C)C)NC(=O)[C@H](CC(C)C)NC(=O)OCc1ccccc1 [Z-Leu-Leu-Phe-COOEt],1.4,1.9,42,0.26,> 100,,,significant inhibition,,15,++,,
"N=C(N)SCCOc1oc(=O)c2cc(NC(=O)Cc3ccccc3)ccc2c1Cl [PhCH2 CONH-CiTEtOIC, 7-(phenylacetylamino)-4-chloro-3-(2-isothiureidoethoxy)isocoumarin]",,,,,,,,,,,,30,
"CCCNC(=O)C(=O)[C@H](CC)NC(=O)[C@H](CC(C)C)NC(=O)OCc1ccccc1 [Z-Leu-Abu-CONHnPr, Z-Leu-Abu-CONH-nPr]",,0.25,8,> 300,2,> 1,> 1,,70,,,,
Z-Leu-Met-CO2 Et [Z-Leu-Met-COOEt],1,1.5,55,1.75,> 100,0.133,,significant inhibition,,140,+,,significant inhibition
"CCCCNC(=O)C(=O)C(Cc1ccccc1)NC(=O)C(CC(C)C)NC(=O)OCc1ccccc1 (stereo not drawn) [Z-Leu-Phe-CONHnBu, Z-Leu-Phe-CONH-nBu]",,0.028,3,8,> 100,> 1,> 1,,38,,,,
"CC(C)C[C@H](NC(=O)OCc1ccccc1)C(=O)N[C@@H](Cc1ccccc1)C(=O)C(=O)OCc1ccccc1 [Z-Leu-Phe-COOBz, Z-Leu-Phe-CO2 Bzl]",3.4,1.6,45,1.6,> 100,0.0317,,significant inhibition,,45,++,,
"CCCNC(=O)C(=O)C(Cc1ccccc1)NC(=O)C(CC(C)C)NC(=O)OCc1ccccc1 (stereo not drawn) [Z-Leu-Phe-CONHnPr, Z-Leu-Phe-CONH-nPr]",15,0.05,3,18,> 300,> 1,> 1,,24,,,,
CCOC(=O)C(=O)C(Cc1ccc(Cl)cc1)NC(=O)C(CC(C)C)NC(=O)OCc1ccccc1 (centres unmarked) [Z-Leu-4-Cl-Phe-COOEt],< 4,0.4,50,0.9,> 100,,,significant inhibition,,150,+,,
"CCC(NC(=O)C(CC(C)C)NC(=O)OCc1ccccc1)C(=O)C(=O)NCc1ccccc1 (stereo not drawn) [Z-Leu-Abu-CONHBz, Z-Leu-Abu-CONH-Bzl]",,0.35,2,> 300,,> 1,> 1,,1.5,,,,
CCC(NC(=O)C(CC(C)C)NC(=O)OCc1ccccc1)C(=O)C(=O)O (stereo not drawn) [Z-Leu-Abu-COOH],0.075,0.022,1.5,> 150,> 150,> 1,> 1,significant inhibition,8,,,,
"CCCCOC(=O)C(=O)C(CC)NC(=O)C(CC(C)C)NC(=O)OCc1ccccc1 (stereo not drawn) [Z-Leu-Abu-COOnBu, Z-Leu-Abu-CO2 Bu]",,,4,> 100,25,,,significant inhibition,28,10,,,
"CCCCNC(=O)C(=O)C(CC)NC(=O)C(CC(C)C)NC(=O)OCc1ccccc1 (stereo not drawn) [Z-Leu-Abu-CONHnBu, Z-Leu-Abu-CONH-nBu]",0.2,,13,> 300,5,> 1,> 1,,2,,,,
